Results as given in PubChem BioAssay (NCI).
Several values for one entry are separate records, joined by “and”; a condition that tells them apart may be missing. Equal values may be shown once.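 Step 1: Grow cells in 96-well plates. Step 2: Expose to compound for 48 hours at 5 concentrations. Step 3: Interpolate endpoints linearly; if unreached, use highest concentration. GI50 is the concentration that inhibits growth by half. Definition used: TGI = concentration required for complete inhibition of growth.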

Assays:
Assay in all cases: DTP human tumour cell line panel, 48 h
[1] = test system: ACHN renal
[2] = test system: UACC-257 melanoma
[3] = test system: OVCAR-4 ovarian
[4] = test system: MDA-MB-435
[5] = test system: MCF7 breast
[6] = test system: SK-MEL-28 melanoma
[7] = test system: A498 renal
[8] = test system: IGROV1 ovarian
[9] = test system: DU-145 prostate
[10] = test system: LOX IMVI melanoma

SMILES: CCCCNC(=O)C1=C(C)NC(C)=C(C(=O)NCCCC)C1
- TGI [1]: > 100 µM
- TGI [2]: > 100 µM
- TGI [3]: > 100 µM
- TGI [4]: > 100 µM
- TGI [5]: > 100 µM
- TGI [6]: > 100 µM
- TGI [7]: > 100 µM
- TGI [8]: > 100 µM
- TGI [9]: > 100 µM
- TGI [10]: > 100 µM

SMILES: COc1ccc(-c2c(N)n(-c3cc(OC)cc(OC)c3)c(=O)c3cc([N+](=O)[O-])ccc23)cc1
- TGI [1]: > 100 µM
- TGI [2]: > 100 µM
- TGI [3]: > 100 µM
- TGI [4]: > 100 µM
- TGI [5]: > 100 µM
- TGI [6]: > 100 µM
- TGI [7]: 98.5 µM
- TGI [8]: > 100 µM
- TGI [9]: > 100 µM
- TGI [10]: > 100 µM

SMILES: COC(=O)c1c(C)cccc1C1CN=NC12Cc1c(C)cccc1C2=O (stereo not given)
- TGI [1]: > 100 µM
- TGI [2]: > 100 µM
- TGI [3]: > 100 µM
- TGI [4]: > 100 µM
- TGI [5]: > 100 µM
- TGI [6]: > 100 µM
- TGI [7]: > 100 µM
- TGI [8]: > 100 µM
- TGI [9]: > 100 µM
- TGI [10]: > 100 µM

SMILES: COC(=O)C1=C(O)C(C(=O)OC)[C@@]2(O)[C@@H](C(=O)OC)C(c3ccc(OC(=O)/C(=C/c4ccccc4)c4ccccc4)cc3)C[C@@H]1[C@@H]2C(=O)OC (stereo not given in full)
- TGI [1]: > 100 µM
- TGI [2]: > 100 µM
- TGI [3]: > 100 µM
- TGI [4]: > 100 µM
- TGI [5]: > 100 µM
- TGI [6]: > 100 µM
- TGI [7]: 96.4 µM
- TGI [8]: > 100 µM
- TGI [9]: > 100 µM
- TGI [10]: 22.5 µM

SMILES: Cc1ccc(-c2n[nH]c(=O)n2N)cc1
- TGI [1]: > 100 µM
- TGI [2]: > 100 µM
- TGI [3]: > 100 µM
- TGI [4]: > 100 µM
- TGI [5]: > 100 µM
- TGI [6]: > 100 µM
- TGI [7]: > 100 µM
- TGI [8]: > 100 µM
- TGI [9]: > 100 µM
- TGI [10]: > 100 µM

SMILES: CNNC1=NS(=O)(=O)c2cc(C(=O)OC)c(Cl)cc2S1
- TGI [1]: > 10 µM
- TGI [2]: > 10 µM
- TGI [3]: > 10 µM
- TGI [4]: > 10 µM
- TGI [5]: > 10 µM
- TGI [6]: > 10 µM
- TGI [7]: > 10 µM
- TGI [8]: > 10 µM
- TGI [9]: > 10 µM
- TGI [10]: > 10 µM

SMILES: O=C(c1cccs1)N(C(=S)OCc1ccccn1)c1ccccc1
- TGI [1]: > 100 µM
- TGI [2]: > 100 µM
- TGI [4]: > 100 µM
- TGI [5]: > 100 µM
- TGI [6]: > 100 µM
- TGI [7]: > 100 µM
- TGI [8]: > 100 µM
- TGI [9]: > 100 µM
- TGI [10]: > 100 µM

SMILES: COc1ccc(/C=C/c2cc(=O)cc(/C=C/c3ccc(OC)c(O)c3)o2)cc1O
- TGI [1]: 6.85 µM
- TGI [2]: 3.78 µM
- TGI [3]: 9.77 µM
- TGI [5]: 5 µM
- TGI [6]: > 100 µM
- TGI [7]: 9.43 µM
- TGI [8]: 13.3 µM
- TGI [9]: > 29.3 µM
- TGI [10]: 3.95 µM

SMILES: CC1(C)C2CCC1(C)C(NC(=O)CCN1CCOCC1)C2 (stereo not given)
- TGI [1]: > 100 µM
- TGI [2]: > 100 µM
- TGI [3]: > 100 µM
- TGI [4]: > 100 µM
- TGI [5]: > 100 µM
- TGI [6]: > 100 µM
- TGI [7]: > 100 µM
- TGI [8]: > 100 µM
- TGI [9]: > 100 µM

SMILES: CCOC(=O)c1c(N2CCOCC2)[nH]c(=O)c(C(c2ccc(N(C)C)cc2)c2c(O)c(C(=O)OCC)c(N3CCOCC3)[nH]c2=O)c1O
- TGI [1]: > 100 µM
- TGI [2]: > 100 µM
- TGI [3]: > 100 µM
- TGI [4]: > 100 µM
- TGI [5]: > 100 µM
- TGI [6]: > 100 µM
- TGI [7]: > 100 µM
- TGI [9]: > 100 µM
- TGI [10]: > 100 µM

SMILES: CCCCCCCCCCCCCC/C(=C/OCC[N+](C)(C)C)OC(C)=O (tested in a mixture with another compound)
- TGI [1]: 14 µM
- TGI [2]: 8.91 µM
- TGI [3]: 7.7 µM
- TGI [4]: 7.49 µM
- TGI [5]: 10.3 µM
- TGI [6]: 20.4 µM
- TGI [7]: 6.99 µM
- TGI [8]: 3.96 µM
- TGI [9]: 17.1 µM

SMILES: Clc1ccc(OCc2nnc(CCCCCCCCc3nnc(COc4ccc(Cl)cc4)o3)o2)cc1
- TGI [1]: > 100 µM
- TGI [2]: > 100 µM
- TGI [3]: > 100 µM
- TGI [4]: > 100 µM
- TGI [5]: > 100 µM
- TGI [6]: > 100 µM
- TGI [7]: > 100 µM
- TGI [9]: > 100 µM

SMILES: O=C1C=CC(=O)c2c(O)c(Nc3ccc(OC(F)(F)F)cc3)c(Cl)c(O)c21
- TGI [1]: 2.76 µM
- TGI [2]: 7.95 µM
- TGI [3]: 2.98 µM
- TGI [4]: 2.17 µM
- TGI [5]: 1.8 µM
- TGI [6]: 1.97 µM
- TGI [7]: 9.36 µM
- TGI [9]: 1.37 µM
- TGI [10]: 0.677 µM

SMILES: CNC(=S)N/N=C(\C)c1ccc(OC)cc1O
- TGI [1]: > 100 µM
- TGI [2]: > 100 µM
- TGI [3]: 94.2 µM
- TGI [4]: > 100 µM
- TGI [6]: > 100 µM
- TGI [7]: > 100 µM
- TGI [8]: > 100 µM
- TGI [9]: > 100 µM
- TGI [10]: > 100 µM

SMILES: CC(=O)OCC1OC(Sc2nc(-c3ccc(C)cc3)c(C#N)c(=O)n2C2OC(COC(C)=O)C(OC(C)=O)C(OC(C)=O)C2OC(C)=O)C(OC(C)=O)C(OC(C)=O)C1OC(C)=O (stereo not given)
- TGI [1]: > 100 µM
- TGI [2]: > 100 µM
- GI50 [4]: > 100 µM and 34.7 µM
- TGI [4]: > 100 µM
- TGI [5]: > 100 µM
- TGI [6]: > 100 µM
- TGI [7]: > 100 µM
- TGI [8]: > 100 µM
- TGI [9]: > 100 µM
- TGI [10]: > 100 µM

SMILES: O=C(CCNC(=O)OCc1ccccc1)OCCCNC(=O)OCc1ccccc1
- TGI [1]: > 100 µM
- TGI [2]: > 100 µM
- TGI [3]: > 100 µM
- TGI [4]: > 100 µM
- TGI [5]: > 100 µM
- TGI [6]: > 100 µM
- TGI [8]: > 100 µM
- TGI [9]: > 100 µM
- TGI [10]: > 100 µM

SMILES: S=C(NNC1=NCCCCN1)Nc1ccccc1
- TGI [1]: > 100 µM
- TGI [2]: > 100 µM
- TGI [4]: > 100 µM
- TGI [5]: > 100 µM
- TGI [6]: > 100 µM
- TGI [7]: > 100 µM
- TGI [8]: > 100 µM
- TGI [9]: > 100 µM
- TGI [10]: 94.7 µM

SMILES: COC(=O)[C@@H]1C[C@H]2[C@H](c3ccccc3Br)[C@@H](OC(C)=O)[C@@H](OCc3ccccc3)ON2O1
- TGI [1]: > 100 µM
- TGI [2]: > 100 µM
- TGI [3]: > 100 µM
- TGI [4]: > 100 µM
- TGI [5]: > 100 µM
- TGI [6]: > 100 µM
- TGI [8]: > 100 µM
- TGI [9]: > 100 µM
- TGI [10]: > 100 µM

SMILES: N#CC1(C#N)C(c2ccccc2)NC23CCCCC2C1(C#N)C(=O)N3 (stereo not given)
- TGI [1]: > 100 µM
- TGI [2]: > 100 µM
- TGI [3]: > 100 µM
- TGI [4]: > 100 µM
- TGI [5]: > 100 µM
- TGI [6]: > 100 µM
- TGI [7]: > 100 µM
- TGI [8]: > 100 µM
- TGI [9]: > 100 µM

SMILES: CCOc1ccccc1N=NC1C(=O)N(C(=O)CC(=O)Nc2ccccc2Cl)N=C1C (stereo not given)
- TGI [1]: > 100 µM
- TGI [3]: > 100 µM
- TGI [4]: > 100 µM
- TGI [5]: > 100 µM
- TGI [6]: > 100 µM
- TGI [7]: > 100 µM
- TGI [8]: > 100 µM
- TGI [9]: > 100 µM
- TGI [10]: > 100 µM

SMILES: O=c1[nH]ncc2[nH]c3c(c12)CCCc1ccccc1-3
- TGI [1]: > 100 µM
- TGI [2]: > 100 µM
- TGI [3]: > 100 µM
- TGI [4]: 82.9 µM
- TGI [5]: > 100 µM
- TGI [7]: 66.3 µM
- TGI [8]: > 100 µM
- TGI [9]: > 100 µM
- TGI [10]: > 100 µM
